Measured values reported in patent US12018305B2, “Process for production of nigericin from Streptomyces sp. MCC-0151” (Council of Scientific & Industrial Research, priority 2018, dated 2024).
Values after ≈ are worked out from the molar mass of the structure shown. Where two headings read alike, the source gives them in different places.

Legend:
[1] = tested on: Bacillus cereus (ATCC 11778); assay: Antibacterial activity (MIC) against Bacillus cereus; type: cell-based; conditions: ATCC11778, range stated over five gram-positive microorganisms, read-out: minimum inhibitory concentration (MIC)
[2] = tested on: Micrococcus luteus (ATCC 11880); assay: Antibacterial activity (MIC) against Micrococcus luteus; type: cell-based; conditions: ATCC11880, range stated over five gram-positive microorganisms, read-out: minimum inhibitory concentration (MIC)
Source text: (§1) FIG. 1A depicts the inhibition of S. aureus growth at varying concentrations of nigericin from Streptomyces sp. MCC-0151. FIG. 1B depicts the antibacterial activity of nigericin from Streptomyces sp. MCC0151 against S. aureus.

[3] = tested on: murine splenocytes; type: cell-based
Source text: FIG. 3 depicts a comparison of the in-vitro toxicity of nigericin isolated from Streptomyces sp. MCC-0151 and commercially available Nigericin on murine splenocytes. ‘▴’ represents nigericin from Streptomyces sp. MCC 0151 and ‘▾’ represents standard Nigericin.
MCCO151 and Sigma standard nigericin. Nigericin produced from Streptomyces sp.

[4] = tested on: Listeria monocytogenes (ATCC 19111); assay: Antibacterial activity (MIC) against Listeria monocytogenes; type: cell-based; conditions: ATCC19111, range stated over five gram-positive microorganisms, read-out: minimum inhibitory concentration (MIC)
Source text: as §1

[5] = in vivo; design: species or system Sprague Dawley rats; conditions: male, Sprague Dawley, rat
Method: Oral solution bioavailability was 2%.
Plasma Pharmacokinetics study of Nigericin was carried out using three different routes of administration i.e. Intravenous (IV), Oral (O) and Intraperitoneal (IP). Based on above study, the intraperitoneal route of administration was selected to study the toxicokinetic profiling of Nigericin.

[6] = Toxicokinetic study, 14-day repeated intraperitoneal administration in Sprague-Dawley rats; type: in vivo; conditions: for Tmax / AUClast / Cmax / AUC(0-t) / Cmax at 14 day / Tmax at 14 day: Sprague-Dawley, ip; for AUC(0-t): AUClast
Method: (§2) A 14-day repeat-intraperitoneal administration protocol was used for carrying out toxicokinetic studies with nigericin. Male and female animals were divided into three groups each based on the dose of nigericin administered (0.5, 1.5 and 5 mg/kg/day). Each group received the administration of the compound at the same dose every day for 14 days. The toxicokinetic parameters were quantified following the first (i.e., day-1) and last (i.e., day-14) administration of nigericin, and the findings are tabulated in Table-3. Following administration on day-1, nigericin was quantifiable in the plasma of the animals for up to 24 h, in all three dose-categories, in both genders. After the administration of the second dose on day-14, plasma concentrations were quantifiable up to 8 h for 0.5 mg/kg/day dose category and up to 24 h for 1.5 mg/kg/day dose category, in both genders.

[7] = tested on: Staphylococcus aureus (ATCC 29737); assay: Antibacterial activity (MIC) against Staphylococcus aureus; type: cell-based
Source text: as §1

[8] = tested on: Staphylococcus epidermidis (ATCC 12228); assay: Antibacterial activity (MIC) against Staphylococcus epidermidis; type: cell-based; conditions: ATCC12228, range stated over five gram-positive microorganisms, read-out: minimum inhibitory concentration (MIC)
[9] = tested on: P. falciparum strain 3D7; assay: Antimalarial activity: inhibition of blood-stage malaria parasite growth (SybrGreen I); type: cell-based; conditions: Plasmodium falciparum, 60 h incubation
Method: Asexual stage of P. falciparum strain 3D7 (received as a gift from collaborator team) was maintained under standard conditions at 2% hematocrit with 0+ human erythrocytes (Blood obtained from Poona Serological Trust Blood Bank, Pune) in RPMI1640 containing 15 mM HEPES, 50 mg/L Gentamicin sulfate 10 mg/L hypoxanthine, 2 g/L sodium bicarbonate (Sigma-Aldrich) and 2.5 g/L AlbuMAX II (Thermo Fisher Scientific). Parasites were synchronized using 5% sorbitol (Sigma-Aldrich) for the enrichment of ring-stage parasite. In brief, P. falciparum cultures were collected by centrifugation at 1,000 g for 5 min at 25° C. and the parasitized RBC pellet was resuspended 5% sorbitol, followed by incubation at 37° C. for 10 min. Following incubation, the cells were pelleted and washed with complete medium, prior to placing the parasites back into culture flasks at 2% hematocrit and 2% parasitemia.
Assays were typically set up in 96-well plate format and 2% of parasitized culture was used per well. The stock solution of the nigericin was prepared in DMSO, and so 0.5% DMSO (equivalent to the DMSO present in the nigericin-treated samples) treatment was used as a control. […]

[10] = tested on: Sprague-Dawley rats; assay: 14-day repeated intraperitoneal dose toxicity in Sprague-Dawley rats; type: in vivo; conditions: for mortality: female rats, 5 mg/kg/day IP, before Day 14, 5 mg/kg/day
Method: as §2
The 5 mg/kg/day was lethal in females.

[11] = female, rat, in vivo, 0.5 mg/kg/day
[12] = female, rat, in vivo, 1.5 mg/kg/day
[13] = male, rat, in vivo, 0.5 mg/kg/day, Cmax
[14] = male, rat, in vivo, 0.5 mg/kg/day, Tmax
[15] = male, rat, in vivo, 1.5 mg/kg/day
[16] = male, rat, in vivo, 1.5 mg/kg/day, Cmax
[17] = male, rat, in vivo, 1.5 mg/kg/day, Tmax
[18] = male, rat, in vivo, 5 mg/kg/day
[19] = male, rat, in vivo, 5 mg/kg/day, Cmax
[20] = male, rat, in vivo, 5 mg/kg/day, Tmax
[21] = 14-day repeated IP, conclusion of study

## CO[C@@H]1C[C@@H](C[C@H]2CC[C@H](C)[C@H]([C@@H](C)C(=O)O)O2)O[C@]2(O[C@](C)([C@H]3CC[C@@](C)([C@@H]4O[C@@H]([C@H]5O[C@@](O)(CO)[C@H](C)C[C@@H]5C)C[C@@H]4C)O3)C[C@H]2C)[C@@H]1C [nigericin]
[1]
  MIC: 0.25 to 0.5 µM (≈ 0.181 to 0.362 µg/mL)
[2]
  MIC: 0.25 to 0.5 µM (≈ 0.181 to 0.362 µg/mL)
[3]
  toxicity against murine splenocytes compared to commercially available nigericin (Sigma): no statistically significant difference
[4]
  MIC: 0.25 to 0.5 µM (≈ 0.181 to 0.362 µg/mL)
[5]; ip, 2 mg/kg
  Tmax: 15 min
  plasma concentrations quantifiable up to: up to 24 hr
[5]; iv, 2 mg/kg
  Vss relative to normal volume of total body water (0.7 L/kg): 2.3 fold
  clearance: 15.1 mL/min/kg
  half-life: 212 min
[5]; po, 10 mg/kg
  Tmax: 37.8 min
  bioavailability: 2%
  plasma concentrations quantifiable up to: up to 24 hr
[6]; Day 1, 0.5 mg/kg/day
  male/female exposure ratio (AUClast): 2.11
[6]; Day 1, 1.5 mg/kg/day
  male/female exposure ratio (AUClast): 0.68
[6]; Day 1, 5 mg/kg/day
  male/female exposure ratio (AUClast): 1.15
[6]; Day 14, 0.5 mg/kg/day
  male/female exposure ratio (AUClast): 0.90
[6]; Day 14, 1.5 mg/kg/day
  male/female exposure ratio (AUClast): 1.21
[6]; rat, in vivo, Mean Tmax across the doses
  Tmax: 4.8 to 25.2 min
[6]; across the doses, both genders
  accumulation following repeated intraperitoneal dose administration: No trend of accumulation
[6]; day-1, all three doses (0.5, 1.5, 5 mg/kg/day IP), both genders
  quantifiable in plasma for up to: up to 24 h
[6]; female, 0.5 mg/kg/day
  accumulation ratio (AUClast) on Day 14: 1.04
[6]; female, 1.5 mg/kg/day
  accumulation ratio (AUClast) on Day 14: 0.51
[6]; female, Day 1, dose increase 0.5 to 1.5 mg/kg/day
  Dose exposure ratio: 5.91
[6]; female, Day 1, dose increase 1.5 to 5 mg/kg/day
  Dose exposure ratio: 2.33
[6]; female, Day 14, dose increase 0.5 to 1.5 mg/kg/day
  Dose exposure ratio: 2.89
[6]; [11]
  AUClast: 549.87 ng·h/mL
  Cmax: 222.17 ng/mL
  AUC(0-t): 527 ng·h/mL
[6]; female, rat, in vivo, 0.5 mg/kg/day, Cmax
  Cmax: 188 ng/mL
[6]; female, rat, in vivo, 0.5 mg/kg/day, Tmax
  Tmax: 19.8 min
[6]; [12]
  AUClast: 1589.38 ng·h/mL
  Cmax: 710.63 ng/mL
  AUC(0-t): 3120 ng·h/mL
[6]; female, rat, in vivo, 1.5 mg/kg/day, Cmax
  Cmax: 840 ng/mL
[6]; female, rat, in vivo, 5 mg/kg/day
  AUC(0-t): 7260 ng·h/mL
[6]; female, rat, in vivo, 5 mg/kg/day, Cmax
  Cmax: 2440 ng/mL
[6]; female, rat, in vivo, 5 mg/kg/day, Tmax
  Tmax: 19.8 min
[6]; male, 0.5 mg/kg/day
  accumulation ratio (AUClast) on Day 14: 0.44
[6]; male, 1.5 mg/kg/day
  accumulation ratio (AUClast) on Day 14: 0.90
[6]; male, 5 mg/kg/day
  accumulation ratio (AUClast) on Day 14: 0.98
[6]; male, Day 1, dose increase 0.5 to 1.5 mg/kg/day
  Dose exposure ratio: 1.91
[6]; male, Day 1, dose increase 1.5 to 5 mg/kg/day
  Dose exposure ratio: 3.93
[6]; male, Day 14, dose increase 0.5 to 1.5 mg/kg/day
  Dose exposure ratio: 3.89
[6]; male, Day 14, dose increase 1.5 to 5 mg/kg/day
  Dose exposure ratio: 4.26
[6]; [13]
  Cmax: 403 ng/mL
  Cmax at 14 day: 200 ng/mL
[6]; [14]
  Tmax: 15 min
  Tmax at 14 day: 16.8 min
[6]; [15]
  AUClast: 2126.23 ng·h/mL
  AUC(0-t): 1920 ng·h/mL
[6]; [16]
  Cmax: 830 ng/mL
  Cmax at 14 day: 815 ng/mL
[6]; [17]
  Tmax: 19.8 min
  Tmax at 14 day: 4.8 min
[6]; [18]
  AUClast: 8347.82 ng·h/mL
  AUC(0-t): 8190 ng·h/mL
[6]; [19]
  Cmax: 2390 ng/mL
  Cmax at 14 day: 3060 ng/mL
[6]; [20]
  Tmax: 19.8 min
  Tmax at 14 day: 19.8 min
[6]; rat, in vivo
  plasma exposure (AUClast) with increase in dose: dose-related increase
[7]; ATCC29737, against Staphylococcus aureus, read-out: MIC
  MIC: 0.21 µg/mL
[7]; ATCC29737, against Staphylococcus aureus, read-out: MIC Conc.
  MIC: 0.288 µM
[7]; Staphylococcus aureus, ATCC29737, range stated over five gram-positive microorganisms, read-out: minimum inhibitory concentration (MIC)
  MIC: 0.25 to 0.5 µM
[7]; against Staphylococcus aureus, read-out: MIC
  MIC: 0.21 µg/mL
[8]
  MIC: 0.25 to 0.5 µM (≈ 0.181 to 0.362 µg/mL)
[9]; read-out: IC50 against P. falciparum
  IC50: ~0.986 nM
[9]; blood-stage parasite growth, n=3
  EC50: 2.4 nM
[10]; 0.5 mg/kg/day IP, 14 consecutive days
  abnormal clinical signs: did not result in abnormal clinical signs
[10]; [21]
  dose that can be lethal: above 5 mg/kg
  dose that will not cause any clinical adversity: < 1.5 mg/kg
[10]
  mortality: Mortality was observed
[10]; listed as Nigericin
  mortality: lethal
[10]; up to 1.5 mg/kg/day IP, 14 consecutive days
  mortalities: did not result in
[10]; up to highest surviving dose 1.5 mg/kg/day IP
  effect on ophthalmoscopy, coagulation, urinalysis and reticulocytes count: no test item related effect
